Test [1] is described as follows: Inhibition of TNF-alpha production in LPS stimulated human PBMC at 360 uM. In kind it is functional.
A short description of test [2]: Inhibition of TNF-alpha production in LPS stimulated human PBMC. The class given is functional.

Each structure is given as a SMILES string.

With `O=C1CCC(F)(N2C(=O)c3ccccc3C2=O)C(=O)N1` (stereo not drawn), the inhibition (commonly the relative decrease from the control value, in per cent) at 360 µM in test [1] stood at 80%.
As to `Nc1cccc2c1C(=O)N(C1(F)CCC(=O)NC1=O)C2=O` (stereo not drawn), the half-maximal inhibitory concentration (IC50) (in general, the point on the concentration scale where inhibition reaches its midpoint) in test [2] came out at 0.23 µM.
Still for that read-out and setting: the same measure for `Nc1cccc2c1C(=O)N(C1CCC(=O)NC1=O)C2=O` (stereo not drawn) [POMALIDOMIDE]: 0.23 µM.

For the origin of these results see ChEMBL document CHEMBL1136276, “Alpha-fluoro-substituted thalidomide analogues” (Bioorg Med Chem Lett, 2003).
